For one experiment, the system named is HCT116 MTAP null cells. Put plainly: HCT116 MTAP null cell proliferation / viability (CellTiter-Glo, 6 days). The class given is cell-based. The following applies: HCT116-MTAP null, 144 h, read-out: HCT-116 MTAP null IC50. The method in brief: (§1)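 Viability read by CellTiter-Glo after 6-day compound exposure of MTAP-null and wild-type HCT116 cells grown in RPMI 1640 with 10% FBS. Dosing used 1:3 steps from 1 or 10 μM (8-9 points) or 1:2 steps from 10 or 50 μM (22 points); IC50 taken where fitted curve crosses 50% of control.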
Background: In ATP-based viability assays light output follows the ATP content of the culture.

The test system of the next experiment is HCT116 WT cells. Kind of experiment: HCT116 WT cell proliferation / viability (CellTiter-Glo, 6 days). The experiment is classed as cell-based. The following applies: Homo sapiens, HCT-116, 144 h, read-out: HCT-116 WT IC50. The method in brief:
as §1

Where [1] appears, read: HCT116 MTAP null cells, 6 days, CellTiter-Glo.
Where [2] appears, read: HCT116 WT cells, 6 days, CellTiter-Glo.

SMILES strings stand for the structures. Like-named read-outs stand apart in the source and are kept apart here.

`C[C@H]1OCc2c1c(N)nc1cc(F)c(C(=O)N(Cc3ccc(OCC(F)(F)F)nn3)CC3CC3)cc21` [Example 818, (3R)-4-amino-N-(cyclopropylmethyl)-7-fluoro-3-methyl-N-((6-(2,2,2-trifluoroethoxy)-3-pyridazinyl)methyl)-1,3-dihydrofuro[3,4-c]quinoline-8-carboxamide]: the IC50 (usually the concentration that inhibits the measured activity by half) in the experiment with HCT116 MTAP null cells (setting [1]) amounted to 7 nM; in the experiment on HCT116 WT cells (setting [2]) it was 161 nM.
Consider `Cn1cc(N(Cc2ccc(C(F)(F)F)cc2)C(=O)c2cc3c4c(c(N)nc3cn2)COC4)cn1` [Example 882, 4-amino-N-(1-methyl-1H-pyrazol-4-yl)-N-(4-(trifluoromethyl)benzyl)-1,3-dihydrofuro[3,4-c][1,7]naphthyridine-8-carboxamide 2,2,2-trifluoroacetate], for which the IC50 in the experiment on HCT116 MTAP null cells (setting [1]) was 62 nM; in the experiment on HCT116 WT cells (setting [2]) it was 1340 nM.
For `Nc1nc2ccc(C(=O)N(Cc3ccc(C(F)(F)F)cn3)c3cccc(F)c3)cc2c2c1COC2` [Example 883, 4-amino-N-(3-fluorophenyl)-N-((5-(trifluoromethyl)-2-pyridinyl)methyl)-1,3-dihydrofuro[3,4-c]quinoline-8-carboxamide], in that order: 20 nM and 514 nM.
The matching figures for `Cn1cc(N(Cc2ccc(C(F)(F)F)cn2)C(=O)c2ccc3nc(N)c4c(c3c2)COC4)cn1` [Example 884, 4-amino-N-(1-methyl-1H-pyrazol-4-yl)-N-((5-(trifluoromethyl)-2-pyridinyl)methyl)-1,3-dihydrofuro[3,4-c]quinoline-8-carboxamide]: 27 nM and 733 nM.
For `Cn1cc(N(Cc2ccc(C(F)(F)F)cn2)C(=O)c2cc3c4c(c(N)nc3cn2)COC4)cn1` [Example 885, 4-amino-N-(1-methyl-1H-pyrazol-4-yl)-N-((5-(trifluoromethyl)-2-pyridinyl)methyl)-1,3-dihydrofuro[3,4-c][1,7]naphthyridine-8-carboxamide], in that order: 25 nM and 596 nM.
Turning to `Cn1cc(N(Cc2ccc(C(F)(F)F)cn2)C(=O)c2cnc3nc(N)c4c(c3c2)COC4)cn1` [Example 886, 4-amino-N-(1-methyl-1H-pyrazol-4-yl)-N-((5-(trifluoromethyl)-2-pyridinyl)methyl)-1,3-dihydrofuro[3,4-c][1,8]naphthyridine-8-carboxamide], the IC50 is 1690 nM with HCT116 MTAP null cells (setting [1]) and greater than 10000 nM with HCT116 WT cells (setting [2]).
For `C[C@H](c1ncccn1)N(Cc1ccc(C(F)(F)F)cn1)C(=O)c1ccc2nc(N)c3c(c2c1)CCOC3` [Example 887, 5-amino-N-[(1R)-1-pyrimidin-2-ylethyl]-N-[[5-(trifluoromethyl)-2-pyridyl]methyl]-2,4-dihydro-1H-pyrano[3,4-c]quinoline-9-carboxamide], in that order: 25 nM and 496 nM.
The matching figures for `C[C@H](c1ncccn1)N(Cc1ccc(C(F)(F)F)cn1)C(=O)c1ccc2nc(N)c3c(c2c1)OCC3` [Example 888, 4-amino-N-[(1R)-1-pyrimidin-2-ylethyl]-N-[[5-(trifluoromethyl)-2-pyridyl]methyl]-2,3-dihydrofuro[3,2-c]quinoline-8-carboxamide]: 21 nM and 231 nM.
`CC(C)CN(Cc1ccc(C(F)(F)F)cn1)C(=O)c1ccc2nc(N)c3c(c2c1)COC3(C)C` [Example 889]: the IC50 is 202 nM with HCT116 MTAP null cells and 4740 nM in the experiment on HCT116 WT cells.
Turning to `CC1OCc2c1c(N)nc1ccc(C(=O)N(Cc3ccc(C(F)(F)F)cn3)Cc3ncccc3F)cc21` (stereo not drawn) [Example 890, 4-amino-N-((3-fluoropyridin-2-yl)methyl)-3-methyl-N-((5-(trifluoromethyl)pyridin-2-yl)methyl)-1,3-dihydrofuro[3,4-c]quinoline-8-carboxamide], the results for the IC50 with HCT116 MTAP null cells (setting [1]) and in the experiment on HCT116 WT cells (setting [2]) were 14 nM and 156 nM, respectively.
The matching figures for `CC1OCc2c1c(N)nc1ccc(C(=O)N(Cc3ccc(C#N)cn3)C(C)C3CCOCC3)cc21` (stereo not drawn) [Example 892, 4-amino-N-((5-cyanopyridin-2-yl)methyl)-3-methyl-N-(1-(tetrahydro-2H-pyran-4-yl)ethyl)-1,3-dihydrofuro[3,4-c]quinoline-8-carboxamide]: 73 nM and 1900 nM.
As for `CC1OCc2c1c(N)nc1ccc(C(=O)N(Cc3ccc(C(F)(F)F)cn3)CC3CCOCC3)cc21` (stereo not drawn) [Example 895, 4-amino-3-methyl-N-((tetrahydro-2H-pyran-4-yl)methyl)-N-((5-(trifluoromethyl)pyridin-2-yl)methyl)-1,3-dihydrofuro[3,4-c]quinoline-8-carboxamide], the IC50 in the experiment on HCT116 MTAP null cells (setting [1]) stood at 51 nM; in the experiment on HCT116 WT cells (setting [2]), 550 nM.
For `CC1OCc2c1c(N)nc1ccc(C(=O)N(Cc3ccc(C#N)cn3)CC3CCOCC3)cc21` (stereo not drawn) [Example 896, 4-amino-N-((5-cyanopyridin-2-yl)methyl)-3-methyl-N-((tetrahydro-2H-pyran-4-yl)methyl)-1,3-dihydrofuro[3,4-c]quinoline-8-carboxamide], in that order: 88 nM and 1800 nM.
The matching figures for `CC1OCc2c1c(N)nc1ccc(C(=O)N(Cc3ccc(C(F)(F)F)cn3)C3CCCC3C#N)cc21` (stereo not drawn) [Example 897, 4-amino-N-(2-cyanocyclopentyl)-3-methyl-N-((5-(trifluoromethyl)pyridin-2-yl)methyl)-1,3-dihydrofuro[3,4-c]quinoline-8-carboxamide]: 24 nM and 110 nM.
For `CC1OCc2c1c(N)nc1ccc(C(=O)N(Cc3ccc(C#N)cn3)C3CCCC3C#N)cc21` (stereo not drawn) [Example 898, 4-amino-N-(2-cyanocyclopentyl)-N-((5-cyanopyridin-2-yl)methyl)-3-methyl-1,3-dihydrofuro[3,4-c]quinoline-8-carboxamide], in that order: 52 nM and 290 nM.
Take `CC1OCc2c1c(N)nc1ccc(C(=O)N(Cc3ccc(C(F)(F)F)cn3)C3CCOC3)cc21` (stereo not drawn) [Example 899, 4-amino-3-methyl-N-(tetrahydrofuran-3-yl)-N-((5-(trifluoromethyl)pyridin-2-yl)methyl)-1,3-dihydrofuro[3,4-c]quinoline-8-carboxamide]: the IC50 was 130 nM with HCT116 MTAP null cells (setting [1]) and 9700 nM in the experiment with HCT116 WT cells (setting [2]).
For `CC1OCc2c1c(N)nc1ccc(C(=O)N(Cc3ccc(C(F)(F)F)cn3)[C@H]3[C@@H]4COC[C@@H]43)cc21` (stereo partly drawn) [Example 900, 4-amino-N-((1R,5S,6r)-3-oxabicyclo[3.1.0]hexan-6-yl)-3-methyl-N-((5-(trifluoromethyl)pyridin-2-yl)methyl)-1,3-dihydrofuro[3,4-c]quinoline-8-carboxamide], in that order: 290 nM and greater than 10000 nM.
The matching figures for `CC1OCc2c1c(N)nc1ccc(C(=O)N(Cc3ccc(C(F)(F)F)cn3)C3CCOCC3C)cc21` (stereo not drawn) [Example 901, 4-amino-3-methyl-N-(3-methyltetrahydro-2H-pyran-4-yl)-N-((5-(trifluoromethyl)pyridin-2-yl)methyl)-1,3-dihydrofuro[3,4-c]quinoline-8-carboxamide]: 42 nM and 430 nM.
For `CO[C@@H]1COCC[C@H]1N(Cc1ccc(C(F)(F)F)cn1)C(=O)c1ccc2nc(N)c3c(c2c1)COC3C` (stereo partly drawn) [Example 902, 4-amino-N-((3S,4R)-3-methoxytetrahydro-2H-pyran-4-yl)-3-methyl-N-((5-(trifluoromethyl)pyridin-2-yl)methyl)-1,3-dihydrofuro[3,4-c]quinoline-8-carboxamide], in that order: 34 nM and 330 nM.
Turning to `CO[C@H]1COCC[C@@H]1N(Cc1ccc(C(F)(F)F)cn1)C(=O)c1ccc2nc(N)c3c(c2c1)COC3C` (stereo partly drawn) [Example 903, 4-amino-N-((3R,4S)-3-methoxytetrahydro-2H-pyran-4-yl)-3-methyl-N-((5-(trifluoromethyl)pyridin-2-yl)methyl)-1,3-dihydrofuro[3,4-c]quinoline-8-carboxamide], the results for the concentration for half-maximal inhibition (IC50) in the experiment on HCT116 MTAP null cells (setting [1]) and with HCT116 WT cells (setting [2]) were 58 nM and 4000 nM, respectively.
The matching figures for `CC1OCc2c1c(N)nc1ccc(C(=O)N(Cc3ccc(C(F)(F)F)cn3)C3CC3C3CC3)cc21` (stereo not drawn) [Example 904, N-([1,1′-bi(cyclopropan)]-2-yl)-4-amino-3-methyl-N-((5-(trifluoromethyl)pyridin-2-yl)methyl)-1,3-dihydrofuro[3,4-c]quinoline-8-carboxamide]: 31 nM and 1600 nM.
The matching figures for `CC1OCc2c1c(N)nc1ccc(C(=O)N(Cc3ccc(C(F)(F)F)cn3)C3CC34CCCCC4)cc21` (stereo not drawn) [Example 905, 4-amino-3-methyl-N-(spiro[2.5]octan-1-yl)-N-((5-(trifluoromethyl)pyridin-2-yl)methyl)-1,3-dihydrofuro[3,4-c]quinoline-8-carboxamide]: 80 nM and 4600 nM.
For `CCOC1CC1N(Cc1ccc(C(F)(F)F)cn1)C(=O)c1ccc2nc(N)c3c(c2c1)COC3C` (stereo not drawn) [Example 907, 4-amino-N-(2-ethoxycyclopropyl)-3-methyl-N-((5-(trifluoromethyl)pyridin-2-yl)methyl)-1,3-dihydrofuro[3,4-c]quinoline-8-carboxamide], in that order: 40 nM and greater than 1000 nM.
For the molecule `CC1OCc2c1c(N)nc1ccc(C(=O)N(Cc3ccc(C(F)(F)F)cn3)C3CC3(C)C)cc21` (stereo not drawn) [Example 908, 4-amino-N-(2,2-dimethylcyclopropyl)-3-methyl-N-((5-(trifluoromethyl)pyridin-2-yl)methyl)-1,3-dihydrofuro[3,4-c]quinoline-8-carboxamide], the IC50 amounted to 123 nM in the experiment on HCT116 MTAP null cells (setting [1]) and 6200 nM in the experiment with HCT116 WT cells (setting [2]).

(Values after patent US20240101570A1 (AMGEN INC., priority 2020, published 2024).)
